Measured values published in US11834401B2, “Treating and preventing diseases by modulating cell mechanics” (THE JOHNS HOPKINS UNIVERSITY, priority 2013, dated 2023).

Key:
microtubule = assay: Microtubule structure; format: cell-based
Dictyostelium cells = assay: Micropipette aspiration cortical tension, Dictyostelium; format: cell-based, Dictyostelium discoideum
Experimental: Micropipette aspiration was used for cortical tension and creep response measurements. Confocal imaging was performed on a Zeiss 510 Meta with a 63× (numerical aperture [NA] 1.4) objective (Carl Zeiss, Jena, Germany). Epifluorescence and TIRF imaging was performed in a 22° C. temperature controlled room with an Olympus IX81 microscope using a 40× (NA 1.3) or 60× (NA 1.49) objective and a 1.4× optovar (Olympus, Center Valley, Pa.), as previously described. Image analysis was performed with ImageJ (rsb.info.nih.gov/ij).
The instrumental and experimental setups have been previously described (Effler J C, et al., 2006; Kee Y-S, et al., 2013). Micropipette aspiration assays were all carried out in growth media with 0.1% DMSO. For cortical tension measurements of Dictyostelium cells, pressure was applied to the cell cortex with a micropipette (2-3 m radius, Rp) to the equilibrium pressure (ΔP) where the length of the cell inside the pipette (Lp) was equal to Rp. The effective cortical tension (Teff) was calculated by applying the Young-Laplace equation: ΔP=2Teff(1/Rp-1/Rc), where Rc is the radius of the cell and ΔP is the equilibrium pressure when Lp=Rp (Derganc J, et al., 2000; Octtaviani E, et al., 2006). For creep tests on mammalian strains, a constant aspiration stress was applied over 60 s. The micropipette radius was 3.5-4.5 m. For quantification, the Lp/Rp ratio values was measured every two seconds and plotted as a function of time. A10.7 and HEK293 cells could only be aspirated at a low pressure range (0.15 nN/μm^2), while HPDE, ASPC-1, and HL-60 cells could be aspirated at higher pressure ranges (0.25 nN/μm^2) because they were stiffer.

[1] = system: NLS-tdTomato expressing Dictyostelium cells
Experimental: NLS-tdTomato expressing Dictyostelium cells were challenged with […] compounds from the ChemBridge Divert-SET library and imaged over three days. Raw data was segmented by CIMPAQ, a designed analytical platform, which rank ordered hits based on their cytokinesis or mitotic inhibitory activity, or lethality. Hits were confirmed through a dose-dependent secondary screening.
Ax3::NLS-tdTomato cells were plated on 384-well COP plates with a MicroFloSelect microplate dispenser (BioTek, Winooski, Vt.) at volumes of 80 μl with a cell concentration of 1000 cells/ml for the 24- and 48-hr time points and at the same volume with a cell concentration of 220 cells/ml for the 72-hr time point. Each plate contained four rows of untreated cells with 0.2% DMSO. For the remaining wells, […] of each small molecule maintained at the Johns Hopkins ChemCORE facility, was added, with a final DMSO concentration of 0.2%. Almost half of the ChemBridge Divert-SET library, which is a 50,000 compound chemical diversity library, was screened over a three-day period on a Becton Dickinson Pathway 855 Bioimager System using a 20× objective (NA 0.75). Each image consisted of a montage of four images collected around the center of the well, resulting in a total size of 1344×1024 pixels per image.
Secondary chemical screening was carried out in quadruplicate, with identical culturing conditions as to the primary screen. 14 mM stocks of each compounds dissolved in 100% DMSO were diluted to the following final concentrations: […], 3.5 nM, 35 nM, 350 nM, 3.5 μM, and 35 μM.
Raw image files from both the primary and secondary screening were processed through CIMPAQ (FIGS. 9E and 9F). The single wavelength fluorescence images were converted from 16-bit format to 8-bit format. The MATLAB Image Processing Toolbox was utilized to segment the images in order to identify the nuclei and cytoplasm. The number of nuclei within each segmented cell was quantified to produce a histogram of nuclei per cell for each image (FIG. 9G). All segmented cells that were coincident with the image edge were disregarded.
Image analysis using CIMPAQ: From the histogram of nuclei per cell count, the ratio of the number of multinucleate cells to the number of mononucleate cells and the ratio of the number of binucleate cells to the number of mononucleate cells were computed. Multinucleate cells are defined as cells that contain >2 nuclei. The distribution of both ratios across multiple wells were simultaneously visualized using a scatter plot, with the ratio of multinucleate cells to mononucleate cells plotted on the x-axis and the ratio of binucleate cells to mononucleate cells plotted on the y-axis (FIGS. 9H and 9I). Other information such as the average number of nuclei per cell, the mean nuclear area, and the normalized histogram with respect to total cell number were also computed.
Hit identification using CIMPAQ: Compounds that generate an increase in the number of multinucleate (>2 nuclei/cell) cells are considered cytokinesis inhibitors. Because nearly all cultured cells, including Dictyostelium, have a low background (typically <5% for WT) of non-mononucleate cells, CIMPAQ spreads the data for each sample by determining the ratio (bi:mono) of binucleate (2 nuclei/cell) to mononucleate cells and the ratio (multi:mono) of multinucleate (>2 nuclei/cell) to mononucleate cells. These two ratios then define a set of Cartesian coordinates, describing the effect of each compound on a given cell-line. The coordinates for each compound are plotted on a two-dimensional graph. CIMPAQ fits the control data to a two-dimensional Gaussian distribution (FIG. 9H) and determines the contour lines for two standard deviations (2SD), 3SD, etc. from the control mean (FIG. 9I).
Hit compounds are rank-ordered based on how many SDs away they are from the untreated wells.

**Q.** For Nc1ccc(Cl)c(Cl)c1 [3,4-DCA, 3,4-dichloroaniline], which microtubule structure (microtubule) is on record?
**A.** neither 3,4-DCA nor 4-HAP affected microtubule structure

**Q.** And the “effect on cortical tension” value (Dictyostelium cells; WT cells)?
**A.** had no effect

**Q.** What about the “cytokinesis inhibition / cellular effect of a single component” value ([1]; compound alone) of the same compound?
**A.** limited cellular effect

**Q.** How did the microtubule structure (microtubule) turn out when CC(=O)c1ccc(O)cc1 [4-HAP, 4-hydroxyacetophenone] was run?
**A.** neither 3,4-DCA nor 4-HAP affected microtubule structure

**Q.** And the “change in cortical tension, myosin II null cells” value (Dictyostelium cells; myoI null cells as printed)?
**A.** did not experience a similar shift in mechanics

**Q.** And the “change in cortical tension, S456L myosin cells” value (Dictyostelium cells; myoII::GFP-S456L cells)?
**A.** did not have a change in cortical tension

**Q.** What about the “lethality to Dictyostelium cells” value ([1]; 5000 nM) of the same compound?
**A.** lethal
